{"source": "paper PMC2676060", "about": "(European journal of medicinal chemistry, 2008)", "key": {"[1]": {"target": "recombinant HIV-1 RT enzyme (p66/51 dimer) (Human immunodeficiency virus type 1 group M subtype B, UniProt P03366)", "assay": "RT inhibition assay, poly", "format": "biochemical", "conditions": "for HIV-1 RT inhibition (in words): poly(rC)·oligo(dG) as template primer"}, "[2]": {"conditions": "cited from earlier work"}}, "data": [{"smiles": "COC(=O)CCC/C=C(\\c1cc(F)cc(C(F)(F)F)c1)c1cc(C)c2onc(OC)c2c1", "note": "[Compound 1]", "values": [{"measurement": "IC50", "setting": "[1]", "value": 900, "unit": "nM"}]}, {"smiles": "COC(=O)CCC/C=C(/c1cc(C)c2onc(OC)c2c1)c1cc(C)c2oc(=O)n(C)c2c1", "note": "[Compound 2]", "values": [{"measurement": "stability in rat blood plasma (in words)", "setting": "[2]", "value": "unstable"}]}, {"smiles": "COC(=O)CCC/C=C(\\c1cc(C)c(OC)c(C(=O)OC)c1)c1cc(C)c2onc(OC)c2c1", "note": "[Compound 3, (Z)-2-Methoxy-5-[5-methoxycarbonyl-1-(3-methoxy-7-methylbenzo[d]isoxazol-5-yl)-pent-1-enyl]-3-methylbenzoic acid methyl ester]", "values": [{"measurement": "IC50", "setting": "[1]", "value": 910, "unit": "nM"}]}, {"smiles": "COC(=O)c1cc(/C(=C/CCN2CCOC2=O)c2cc(C)c3onc(OC)c3c2)cc(C)c1OC", "note": "[Compound 5, (E)-2-Methoxy-5-[1-(3-methoxy-7-methylbenzo[d]isoxazol-5-yl)-4-(2-oxoxazolidin-3-yl)-but-1-enyl]-3-methylbenzoic acid methyl ester]", "values": [{"measurement": "HIV-1 RT inhibition (in words)", "setting": "[1]", "value": "much less active"}]}, {"smiles": "COC(=O)c1cc(/C(=C/CCN2CCOC2=O)c2cc(C)c3onc(OC)c3c2)cc(Cl)c1OC", "note": "[Compound 6, (E)-3-Chloro-2-methoxy-5-[1-(3-methoxy-7-methyl-benzo[d]isoxazol-5-yl)-4-(2-oxoxazolidin-3-yl)-but-1-enyl]-benzoic acid methyl ester]", "values": [{"measurement": "HIV-1 RT inhibition (in words)", "setting": "[1]", "value": "much less active"}]}, {"smiles": "COc1noc2c(C)cc(C(=CCCN3CCOC3=O)c3cc(C)c4onc(OC)c4c3)cc12", "note": "[Compound 7, 3-[4,4-Bis-(3-methoxy-7-methyl-benzo[d]isoxazol-5-yl)-but-3-enyl]-oxazolidin-2-one]", "values": [{"measurement": "HIV-1 RT inhibition (in words)", "setting": "[1]", "value": "active"}]}, {"smiles": "COc1noc2c(C)cc(/C(=C\\CCN3CCOC3=O)c3cc(C)c4oc(=O)n(C)c4c3)cc12", "note": "[Compound 8, (E)-5-[1-(3-Methoxy-7-methylbenzo[d]isoxazol-5-yl)-4-(2-oxoxazolidin-3-yl)-but-1-enyl]-3,7-dimethyl-3H-benzoxazol-2-one]", "values": [{"measurement": "HIV-1 RT inhibition (in words)", "setting": "[1]", "value": "much less active"}]}, {"smiles": "COc1noc2c(C)cc(/C(=C\\CCN3CCOC3=O)c3cccc(C#N)c3)cc12", "note": "[Compound 9, (Z)-3-[1-(3-Methoxy-7-methylbenzo[d]isoxazol-5-yl)-4-(2-oxoxazolidin-3-yl)-but-1-enyl]-benzonitrile]", "values": [{"measurement": "HIV-1 RT inhibition (in words)", "setting": "[1]", "value": "much less active"}]}]}
